Test results: patent US20260176232A1, “PROBENECID COMPOUNDS FOR THE TREATMENT OF INFLAMMASOME-MEDIATED DERMATOLOGICAL CONDITIONS” (Bacainn Biotherapeutics, Ltd., priority 2022, published 2026)

Experiments:
[1] = system: NLRP1 inflammasome; experiment: IL-1β secretion in macrophages challenged with L18-MDP (FIG. 4C); assay type: cell-based, human; conditions: BT032 20, 100 μM; MCC950 5 μM; L18-MDP 100 μg/ml 16 h
Excerpt: In vitro stimulation of human macrophages.

[2] = target: T1, NLRP3 inflammasome (Mus musculus, UniProt Q8R4B8); experiment: IL-1β secretion (ELISA) in LPS-primed iBMDMs stimulated with silica or nigericin; assay type: cell-based, murine (C57BL/6); parameters: endogenous in cells; host or cells: immortalized wild-type C57BL/6 bone-marrow derived macrophages (iBMDMs), LPS-primed; conditions: compared with probenecid in DMSO or PBS
T1 sequence (Q8R4B8 whole entry): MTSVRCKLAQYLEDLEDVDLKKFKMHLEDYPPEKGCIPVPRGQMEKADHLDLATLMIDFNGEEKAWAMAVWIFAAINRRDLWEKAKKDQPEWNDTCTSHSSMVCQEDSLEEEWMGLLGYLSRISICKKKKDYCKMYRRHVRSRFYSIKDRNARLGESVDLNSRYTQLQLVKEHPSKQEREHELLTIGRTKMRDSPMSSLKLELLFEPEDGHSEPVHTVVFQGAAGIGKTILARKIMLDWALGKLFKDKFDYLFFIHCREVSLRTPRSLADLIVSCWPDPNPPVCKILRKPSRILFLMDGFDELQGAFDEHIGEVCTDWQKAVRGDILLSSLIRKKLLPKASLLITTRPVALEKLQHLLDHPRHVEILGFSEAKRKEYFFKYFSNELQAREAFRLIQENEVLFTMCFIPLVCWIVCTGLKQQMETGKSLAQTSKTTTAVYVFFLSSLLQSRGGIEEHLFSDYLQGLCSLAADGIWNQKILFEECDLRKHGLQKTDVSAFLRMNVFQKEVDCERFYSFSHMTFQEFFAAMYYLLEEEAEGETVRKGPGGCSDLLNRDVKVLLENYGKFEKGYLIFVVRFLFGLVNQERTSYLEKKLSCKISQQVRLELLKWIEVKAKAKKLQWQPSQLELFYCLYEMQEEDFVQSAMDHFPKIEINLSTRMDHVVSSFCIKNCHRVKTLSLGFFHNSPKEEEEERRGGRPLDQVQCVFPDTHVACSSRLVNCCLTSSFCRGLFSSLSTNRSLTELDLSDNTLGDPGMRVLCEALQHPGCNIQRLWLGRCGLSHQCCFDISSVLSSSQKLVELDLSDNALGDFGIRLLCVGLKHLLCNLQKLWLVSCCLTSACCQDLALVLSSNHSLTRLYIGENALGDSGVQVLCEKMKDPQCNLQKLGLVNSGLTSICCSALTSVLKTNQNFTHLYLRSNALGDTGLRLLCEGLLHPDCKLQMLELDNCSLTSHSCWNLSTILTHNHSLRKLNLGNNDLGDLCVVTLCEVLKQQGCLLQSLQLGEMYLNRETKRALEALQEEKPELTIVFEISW
Procedure: In vitro stimulation of murine macrophages. Immortalized wild-type C57BL/6 bone-marrow derived macrophages (iBMDMs) were grown in DMEM supplemented with 10% heat inactivated FBS and 2 mM glutamine. iBMDMs were seeded in 96-well plates 24 hours prior incubation with lipopolysaccharide (LPS; 100 ng/mL) for 3 hours. Cells were then incubated with a control probenecid compound (probenecid dissolved in DMSO (Prob/D), probenecid dissolved in PBS (Prob/P)) or one of the probenecid analogs of the present technology (BT032, BT132, BT133, BT134, BT135, BT136, BT137, BT138, BT139, or BT140) at concentrations of 300 μM, 150 μM, 30 μM, or 3 μM 1 hour prior to stimulation with NLRP3 inflammasome activators, silica ([…]) or nigericin (6 μM). After an additional 6 hours, cell supernatants were collected and levels of IL-1β were quantified by ELISA. These experiments were run in triplicate three times.

[3] = system: NLRP1-mediated inflammasome activity; experiment: IC50 curve, L18-MDP-induced IL-1β secretion in LPS-primed immortalized BMDMs; assay type: cell-based, murine; conditions: L18-MDP 100 μg/mL; drug 3.9-350 μM; FIG. 4B; read-out: half maximal inhibitory concentration (IC50), NLRP1-mediated inflammasome activity
Procedure: FIGS. 4A and 4B are charts showing inflammasome activity as determined by measuring secreted IL-1β concentrations in murine immortalized BMDMs pre-activated with lipopolysaccharide (LPS; 100 ng/mL) for 3 h. The macrophages were stimulated with either the NLRP3 activator, nigericin (3 μM) (FIG. 4A) or the NLRP1 agonist L18-MDP (100 μg/mL) (FIG. 4B) and treated or not with BT032 (3.9-350 μM). […] BT032 versus normalized responses (variable slope).

[4] = target: T1, NLRP3 inflammasome; experiment: IL-1β secretion in macrophages challenged with nigericin, MSU or silica (FIG. 4C); conditions: BT032 20, 100 μM; MCC950 5 μM; secreted IL-1β
[5] = system: T2, ASC speck formation (inflammasome complex); experiment: Nigericin-induced ASC speck formation in ASC-cerulean/NLRP3 macrophages; assay type: cell-based; conditions: 350 μM, 60 mins before nigericin 3 μM 90 mins; about 20% of cells with nigericin alone
T2 construct: Flag; expressed in transfected cells; host or cells: NLRP3-deficient immortalized BMDMs
T2 sequence (Q96P20 whole entry, one chain of several): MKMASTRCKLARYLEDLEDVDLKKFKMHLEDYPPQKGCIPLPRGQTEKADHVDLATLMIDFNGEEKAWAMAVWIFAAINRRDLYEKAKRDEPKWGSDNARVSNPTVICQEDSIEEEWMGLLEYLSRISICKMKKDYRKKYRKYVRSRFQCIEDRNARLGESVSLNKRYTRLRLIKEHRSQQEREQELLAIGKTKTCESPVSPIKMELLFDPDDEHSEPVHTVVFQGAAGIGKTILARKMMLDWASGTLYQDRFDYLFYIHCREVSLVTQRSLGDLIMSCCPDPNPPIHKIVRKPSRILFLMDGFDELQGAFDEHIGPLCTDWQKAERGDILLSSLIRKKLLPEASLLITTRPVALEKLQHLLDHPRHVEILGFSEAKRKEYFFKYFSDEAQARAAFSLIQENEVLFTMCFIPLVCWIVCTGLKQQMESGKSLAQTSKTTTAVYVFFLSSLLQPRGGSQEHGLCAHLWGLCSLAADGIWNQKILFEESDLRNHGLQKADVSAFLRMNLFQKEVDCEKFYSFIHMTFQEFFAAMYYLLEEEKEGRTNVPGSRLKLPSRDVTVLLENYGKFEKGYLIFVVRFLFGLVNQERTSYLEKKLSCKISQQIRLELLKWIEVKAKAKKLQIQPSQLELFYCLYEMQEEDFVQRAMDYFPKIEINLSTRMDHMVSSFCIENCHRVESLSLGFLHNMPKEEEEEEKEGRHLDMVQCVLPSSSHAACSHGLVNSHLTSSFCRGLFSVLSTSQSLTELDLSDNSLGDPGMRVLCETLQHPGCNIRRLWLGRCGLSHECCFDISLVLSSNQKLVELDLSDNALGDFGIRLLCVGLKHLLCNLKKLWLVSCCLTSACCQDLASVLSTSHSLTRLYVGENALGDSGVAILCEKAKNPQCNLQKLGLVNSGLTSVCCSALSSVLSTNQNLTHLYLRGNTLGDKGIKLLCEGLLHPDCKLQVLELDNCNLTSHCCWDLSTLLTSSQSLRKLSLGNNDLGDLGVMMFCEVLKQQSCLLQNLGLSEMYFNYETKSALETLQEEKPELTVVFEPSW
Procedure: FIGS. 5B-5D are pictures showing the ability of probenecid analogs of the present technology (e.g., BT032) to inhibit the formation of the inflammasome complex following NLRP3 activation. NLRP3-deficient immortalized BMDMs reconstituted with ASC-cerulean (pseudocolor RED) and NLRP3-Flag were either not stimulated (FIG. 5B) or stimulated with NLRP3 agonist nigericin (3 μM) for 90 mins (FIG. 5C). ASC-cerulean macrophages were also pretreated with BT032 (350 μM) for 60 mins prior to nigericin challenge (FIG. 5D). Macrophages were fixed with 4% paraformaldehyde and imaged for the formation of inflammasome specks as identified by intense, punctate staining in the cytosol of cells. Cell nuclei were stained with DAP (4′,6′-diamindino-2-phenylindole; BLUE). Representative images shown are maximum intensity projections of 3D deconvoluted z stacks using ImageJ.
FIG. 5E is a chart showing the number of ASC specks detected per field (6-7 fields per sample) compared to the total number of cells/field as determined by staining nuclei. Data is represented as a percentage of ASC-specks per field of view for each treatment group as outlined in FIGS. 5B-5D.
Methods. […] ASC-cerulean specks were counted for each field and as percentage of specks per field and represented as a percentage of total Hoechst positive cells.

[6] = system: Recombinant NLRP3; experiment: Photo-affinity labelling of recombinant NLRP3, anti-PEG immunoblot (FIG. 9C); assay type: binding; conditions: inferred from photo-affinity probes ADS165, ADS167
[7] = system: NLRP1 inflammasome; experiment: L18-MDP-induced IL-1β secretion in WT or NLRP3-/- immortalized BMDMs (FIG. 8); assay type: cell-based, murine; conditions: 20, 50, 100, 350 μM
Excerpt: In vitro stimulation of murine macrophages.

With `CCCN(CCC)S(=O)(=O)c1ccc(-c2ccc(CCCC(=O)O)cc2)cc1` [BT032, 4-(4′-(N,N-dipropylsulfamoyl)-[1,1′-biphenyl]-4-yl)butanoic acid] the “NLRP1 (L18-MDP)-induced inflammasome activation” value [1] was “dose-dependently inhibited”, the “potency versus control probenecid compounds (IL-1β secretion)” value [2] was “more potent than the control probenecid compounds” and the IC50 [3] was 30 µM. The “NLRP3 (Nigericin, MSU, Silica)-induced inflammasome activation” value [4] was “dose-dependently inhibited”, the “ASC specks in cells” value [5] was “substantially reduced ASC specks” and the “direct interaction with NLRP3” value [6] was “directly interacts proximal to the Walker B motif within the NACHT domain”. For the same compound, the “NLRP1 (L18-MDP)-induced inflammasome activation as measured by IL-1β secretion” value ([7]; NLRP3-/- macrophages) was “dose-dependently inhibited” and the “NLRP1 (L18-MDP)-induced inflammasome activation as measured by IL-1β secretion” value ([7]; WT macrophages) was “dose-dependently inhibited”.
